This is an account of results in patent publication USRE43712E1, “Methods for assaying for antidepressant therapy markers” (The Board of Trustees of the Uniersity of Illinois, priority 2000, dated 2012).

One test concerns adenylyl cyclase. Put plainly: Adenylyl cyclase activity in sucrose density gradient fractions of Triton X-100-solubilized C6-2B cells. In kind it is cell-based. As to conditions: 10 μM desipramine-treated C6-2B cells. As to the method:
C6-2B cells treated as described above were used to prepare Triton-insoluble, caveolin-enriched membrane fractions by the procedure of Li et al. [J. Biol. Chem., 270:15693-15701; 1995] with minor modifications. In brief, C6-2B cells were harvested into 0.75 ml of HEPES buffer (10 mM HEPES, pH 7.5, 150 mM NaCl, 1 mM DTT, 0.3 mM PMSF) containing 1% Triton X-100. Homogenization was carried out with 10 strokes of a Potter-Elvehjem homogenizer. The homogenate was adjusted to 40% sucrose by the addition of an equal volume of 80% sucrose prepared in HEPES buffer and placed at the bottom of an ultracentrifuge tube. A step gradient containing 30, 15, and 5% sucrose was formed above the homogenate and centrifuged at 50,000 rpm for 20 h in an SW65 rotor (240,000 g). Two or three opaque bands confined between the 15 and 30% sucrose layers were harvested, diluted threefold with HEPES buffer, and pelleted in a microcentrifuge at 16,000 g. The pellet was resuspended in HEPES buffer and identified as the Triton-insoluble fraction. The 40% sucrose region of the gradient was saved as the Triton-soluble fraction. In separate experiments, the same conditions were used, but instead of isolating the three opaque bands, 100-μl fractions were collected and assayed for Gs content and adenylyl cyclase activity.
Adenylyl cyclase was assayed as described previously [Rasenick et al., Brain Res., 488:105-113; 1989]. […]

In test [1] the test system is Gsα. The test can be described thus: Gsα in Triton-insoluble, caveolin-enriched versus Triton-soluble fraction of C6-2B cells (sucrose density gradient, immunoblot). In kind it is cell-based. As to conditions: chronic treatment, FIG. 3C. As to the method: Rat cortex membrane, C6-2B cell membranes, or Triton extracts of each membrane preparation were subjected to SDS-PAGE followed by electrotransfer to polyvinylidene difluoride (PVDF) membrane. The PVDF membrane was incubated with a phosphate-buffered saline/Tween 20 Buffer (140 mM NaCl, […]. 0.1% Tween 20, pH 7.4) and 3% bovine serum albumin. The membrane was then incubated with polyclonal rabbit antisera against the various G protein subunits [RM (Gsα) or 116 (Gi1, Gi2, Gi3α)] at a 1:25,000 (RM) or 1:5,000 (116) dilution (see below for source of antibodies). […] Immunoreactivity was detected with an enhanced chemiluminescence (ECL) western blot detection system (Amersham) in accord with the manufacturer's instructions. The developed autoradiographs were analyzed by densitometry.
A general note: In western blotting, separated proteins are transferred to a membrane and probed.

For a further test, the system named is Goα. Put plainly: Cellular localization of Goα in C6-2B cells, immunofluorescence confocal microscopy. In kind it is cell-based. The note with it: 10 μM desipramine 3 days, approximately 500 cells, FIG. 9. The protocol:
C6-2B cells (between passages 30 and 50) were plated onto coverslips and allowed to attach overnight in Dulbecco's modified Eagle's medium. 4.5 g/l glucose, 10% bovine serum, and 100 μg/ml penicillin and streptomycin at 37° C. in a humidified 10% CO2 atmosphere. […] Therefore, the latter treatment paradigm was used in these experiments because it was easier to maintain the cell cultures for 3 days. […] The culture media and drug were changed daily. […] After the treatment duration, the cells were incubated in drug-free media for 45 to 60 minutes before fixation.
After treatment, cells were washed once with phosphate-buffered saline (PBS, […] NaCl, 2.6 mM KCl, 5.4 mM NaαPO4 7H2O, pH 7.4) and fixed with ice-cold methanol for 10 minutes. Cells were then washed three times with PBS followed by 2 h of blocking in 5% normal goat serum/0.2% fish skin gelatin in PBS. Primary antibody was added for 1.5 h, Gsα/RM1 (PerkinElmer Life Sciences, Boston, Mass.) 1:50 and Goα (Santa Cruz Biotechnology, Santa Cruz, Calif.) 2 μg/ml, followed by three washes with PBS. Oregon Green-labeled secondary antibody (Molecular Probes, Eugene, Oreg.) was added at a concentration of 8 μg/ml for 1 h followed by three PBS washes. […] Approximately 2100 cells from control and desipramine-treated coverslips were counted by two investigators blind to the experimental conditions over the course of the five experiments. […]

In test [2] the test system is Gsα. Put plainly: Cellular localization of Gsα in C6-2B cells, immunofluorescence laser scanning confocal microscopy. In kind it is cell-based.
Test [3] relates to Gsα. The test can be described thus: Detergent extraction of Gsα from rat synaptic membrane after chronic antidepressant treatment. In kind it is in vivo. The note with it: short-term treatment (1-day treatment of cells or 1-week treatment of rats).

As to `CNCCCN1c2ccccc2CCc2ccccc21` [Desipramine, desipramine], the “Basal adenylyl cyclase activity” value in the test with adenylyl cyclase (gradient fractions) was “unchanged”. Also, the “Forskolin-stimulated adenylyl cyclase activity compared with control” value with adenylyl cyclase (gradient fractions 11 and 12, 10^−4 M forskolin) is on record as “almost a twofold increase”. The “Decrease of the amount of Gsα in the caveolin-enriched Triton-insoluble fraction, normalized to equal caveolin” value in the test with Gsα [1] is ~50%. Besides, in the test with Goα, the “Change in the distribution of Goα” value was “little if any change”. For the same compound, in the test with Gsα [2] (3 μM for five days), the “Intense Gsα staining at the process tips” value is “do not”. Further, the “Number of cells lacking Gsα in the process tips versus control” value in the test with Gsα [2] (acute treatment, one day, 10 μM) is “not significantly different from the control”.

For `CNCCC(Oc1ccc(C(F)(F)F)cc1)c1ccccc1` (stereo not shown) [Fluoxetine, fluoxetine], the “Effect of short-term treatment on the parameters examined” value with Gsα [3] is “without effect”.
